Test results as given in the supplement of paper PMC10307832.

Legend:
Experiment in all cases: relative viability (nuclei count vs DMSO), 5 days (fraction); higher = more cells survive
A549 = system: A549
In short: (§1)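 For relative viability, nuclei counts in treated wells were divided by those in vehicle wells. Lung cancer cell lines had been pin-tool dosed in 1536-well plates the day after seeding and cultured for 5 days, then fixed and stained in one step (final 0.05% Triton X-100, 1% formaldehyde, 1 ug/ml Hoechst) and imaged at 4×. Doses were one drug alone or a fixed anchor-drug dose plus five library-drug doses (not always all listed) in √10 steps, and values are duplicate-plate medians.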

Calu-6 = system: Calu-6
In short: as §1

EBC-1 = system: EBC-1
In short: as §1

EMC-BAC-2 = system: EMC-BAC-2
In short: as §1

HCC-366 = system: HCC-366
In short: as §1

HCC-78 = system: HCC-78
In short: as §1

IA-LM = system: IA-LM
In short: as §1

LCLC-97TM1 = system: LCLC-97TM1
In short: as §1

NCI-H1299 = system: NCI-H1299
In short: as §1

NCI-H1395 = system: NCI-H1395
In short: as §1

NCI-H1703 = system: NCI-H1703
In short: as §1

CN1CCN(CCOc2cc(OC3CCOCC3)c3c(Nc4c(Cl)ccc5c4OCO5)ncnc3c2)CC1 [Saracatinib] + C[C@]1(O)C[C@@H](c2nc(-c3ccc4ccc(-c5ccccc5)nc4c3)c3c(N)nccn32)C1 [Linsitinib] (partner 1 µM)
relative viability (A549; first compound 0.02 µM): 0.564 | relative viability (A549; first compound 0.2 µM): 0.566 | relative viability (A549; first compound 0.6325 µM): 0.638 | relative viability (A549; first compound 2 µM): 0.357 | relative viability (Calu-6; first compound 0.02 µM): 0.95 | relative viability (Calu-6; first compound 0.2 µM): 0.824 | relative viability (Calu-6; first compound 0.6325 µM): 0.906 | relative viability (Calu-6; first compound 2 µM): 0.68 | relative viability (EBC-1; first compound 0.02 µM): 0.94 | relative viability (EBC-1; first compound 0.2 µM): 0.771 | relative viability (EBC-1; first compound 0.6325 µM): 1.07 | relative viability (EBC-1; first compound 2 µM): 0.982 | relative viability (EMC-BAC-2; first compound 0.02 µM): 0.813 | relative viability (EMC-BAC-2; first compound 0.2 µM): 0.775 | relative viability (EMC-BAC-2; first compound 0.6325 µM): 0.642 | relative viability (EMC-BAC-2; first compound 2 µM): 0.497 | relative viability (HCC-366; first compound 0.02 µM): 0.607 | relative viability (HCC-366; first compound 0.6325 µM): 0.283 | relative viability (HCC-366; first compound 2 µM): 0.13 | relative viability (HCC-78; first compound 0.02 µM): 0.52 | relative viability (HCC-78; first compound 0.2 µM): 0.505 | relative viability (HCC-78; first compound 0.6325 µM): 0.753 | relative viability (HCC-78; first compound 2 µM): 0.497 | relative viability (IA-LM; first compound 0.02 µM): 0.682 | relative viability (IA-LM; first compound 0.2 µM): 0.838 | relative viability (IA-LM; first compound 0.6325 µM): 1.43 | relative viability (IA-LM; first compound 2 µM): 0.815 | relative viability (LCLC-97TM1; first compound 0.02 µM): 0.17 | relative viability (LCLC-97TM1; first compound 0.2 µM): 0.127 | relative viability (LCLC-97TM1; first compound 0.6325 µM): 0.197 | relative viability (LCLC-97TM1; first compound 2 µM): 0.272 | relative viability (NCI-H1299; first compound 0.02 µM): 0.992 | relative viability (NCI-H1299; first compound 0.2 µM): 0.791 | relative viability (NCI-H1299; first compound 0.6325 µM): 0.979 | relative viability (NCI-H1299; first compound 2 µM): 0.655 | relative viability (NCI-H1395; first compound 0.02 µM): 1.08 | relative viability (NCI-H1395; first compound 0.2 µM): 0.995 | relative viability (NCI-H1395; first compound 0.6325 µM): 1.27 | relative viability (NCI-H1395; first compound 2 µM): 0.876 | relative viability (NCI-H1703; first compound 0.02 µM): 1.02 | relative viability (NCI-H1703; first compound 0.2 µM): 0.738 | relative viability (NCI-H1703; first compound 0.6325 µM): 0.513 | relative viability (NCI-H1703; first compound 2 µM): 0.35

CN1CCN(CCOc2cc(OC3CCOCC3)c3c(Nc4c(Cl)ccc5c4OCO5)ncnc3c2)CC1 [Saracatinib] + Cc1nc(NC(=O)N2CCC[C@H]2C(N)=O)sc1-c1ccnc(C(C)(C)C(F)(F)F)c1 [Alpelisib] (partner 2 µM)
relative viability (A549; first compound 0.02 µM): 0.799 | relative viability (A549; first compound 0.2 µM): 0.718 | relative viability (A549; first compound 0.6325 µM): 0.861 | relative viability (A549; first compound 2 µM): 0.5 | relative viability (Calu-6; first compound 0.02 µM): 1.02 | relative viability (Calu-6; first compound 0.2 µM): 0.683 | relative viability (Calu-6; first compound 0.6325 µM): 0.721 | relative viability (Calu-6; first compound 2 µM): 0.76 | relative viability (EBC-1; first compound 0.02 µM): 0.929 | relative viability (EBC-1; first compound 0.2 µM): 0.764 | relative viability (EBC-1; first compound 0.6325 µM): 0.898 | relative viability (EBC-1; first compound 2 µM): 0.906 | relative viability (EMC-BAC-2; first compound 0.02 µM): 0.778 | relative viability (EMC-BAC-2; first compound 0.2 µM): 0.657 | relative viability (EMC-BAC-2; first compound 0.6325 µM): 0.697 | relative viability (EMC-BAC-2; first compound 2 µM): 0.578 | relative viability (HCC-366; first compound 0.02 µM): 0.429 | relative viability (HCC-366; first compound 0.6325 µM): 0.272 | relative viability (HCC-366; first compound 2 µM): 0.152 | relative viability (HCC-78; first compound 0.02 µM): 0.29 | relative viability (HCC-78; first compound 0.2 µM): 0.328 | relative viability (HCC-78; first compound 0.6325 µM): 0.479 | relative viability (HCC-78; first compound 2 µM): 0.323 | relative viability (IA-LM; first compound 0.02 µM): 0.93 | relative viability (IA-LM; first compound 0.6325 µM): 1.44 | relative viability (IA-LM; first compound 2 µM): 0.958 | relative viability (LCLC-97TM1; first compound 0.02 µM): 0.198 | relative viability (LCLC-97TM1; first compound 0.2 µM): 0.195 | relative viability (LCLC-97TM1; first compound 0.6325 µM): 0.357 | relative viability (LCLC-97TM1; first compound 2 µM): 0.282 | relative viability (NCI-H1299; first compound 0.02 µM): 1.08 | relative viability (NCI-H1299; first compound 0.2 µM): 1.02 | relative viability (NCI-H1299; first compound 0.6325 µM): 1.14 | relative viability (NCI-H1299; first compound 2 µM): 1.1 | relative viability (NCI-H1395; first compound 0.02 µM): 1.6 | relative viability (NCI-H1395; first compound 0.2 µM): 1.06 | relative viability (NCI-H1395; first compound 0.6325 µM): 0.956 | relative viability (NCI-H1395; first compound 2 µM): 0.851 | relative viability (NCI-H1703; first compound 0.02 µM): 0.321 | relative viability (NCI-H1703; first compound 0.2 µM): 0.243 | relative viability (NCI-H1703; first compound 0.6325 µM): 0.189 | relative viability (NCI-H1703; first compound 2 µM): 0.184
